# In US5981540A, “Heterocycle-condensed morphinoid derivatives” (SmithKline Beecham Farmaceutici S.P.A., priority 1994, dated 1999):
# Structures can show the parent of a compound that is named as a salt.
# How the values were obtained:
# [1] = target: delta opioid receptor (mouse vas deferens); experiment: Mouse vas deferens (MVD) bioassay, delta agonist/antagonist activity
# Experimental: The delta agonist/antagonist activity of the compounds of the present invention is determined in the mouse vas deferens (MVD) bioassay as described below.
# Vasa deferentia were obtained from CD-1 mice and were suspended in a Mg^2+ -free Krebs buffer at 37° C. The tissues were electrically stimulated with pulse trains having the following parameters: train duration 50 ms, stimulus duration 2 ms, frequency of stimuli 50 Hz, maximal voltage 60-70 V, train frequency 0.1 Hz. Concentration response curves for each compounds were constructed cumulatively. Linear regression analysis and IC50 concentrations were evaluated according to Tallarida and Murray (Manual of Pharmacological Calculations, Springer Verlag N.Y., 1981).
# kappa opioid receptor = target: T1, kappa opioid receptor (Mus musculus, UniProt P33534); experiment: Radioligand binding, kappa opioid receptor ([3H]-U69593, mouse brain membranes); conditions: selectivity ratio, kappa vs delta
# T1 construct: Mouse brain membranes were prepared as described by; from tissue; host or cells: mouse brain membranes
# Experimental: (§1) Mouse brain membranes were prepared as described by Kosteriitz (Br. J. Pharmacol., 1981, 73, 939.). […] The binding of the mu ligand [^3 H]-DAMGO (Eur. J. Pharmacol., 1989, 166, 213) and of the kappa ligand [^3 H]-U69593 (Excerpta Medica, 1990, 211) were carried out at 0.5 nM. The non-specific binding was determined in presence of naloxone (10 μM) for all tritiated ligands. […] The IC50 obtained were used to calculate the inhibitory constants (Ki) accordingly to the Cheng and Prusoff relation (Biochem. Pharmacol., 1973, 22, 3099).
# mu opioid receptor = target: T2, mu opioid receptor (Mus musculus, UniProt P42866); experiment: Radioligand binding, mu opioid receptor ([3H]-DAMGO, mouse brain membranes); conditions: selectivity ratio, mu vs delta
# T2 construct: Mouse brain membranes were prepared as described by; from tissue; host or cells: mouse brain membranes
# Experimental: as §1
# delta opioid receptor = target: T3, delta opioid receptor (Mus musculus, UniProt P32300); experiment: Radioligand binding, delta opioid receptor ([3H]-DADLE, mouse brain membranes); conditions: [3H]-DADLE binding, 1.3 nM, with 40 nM unlabelled DAMGO
# T3 construct: Mouse brain membranes were prepared as described by; from tissue; host or cells: mouse brain membranes
# Experimental: as §1
# T2 sequence (P42866 whole entry): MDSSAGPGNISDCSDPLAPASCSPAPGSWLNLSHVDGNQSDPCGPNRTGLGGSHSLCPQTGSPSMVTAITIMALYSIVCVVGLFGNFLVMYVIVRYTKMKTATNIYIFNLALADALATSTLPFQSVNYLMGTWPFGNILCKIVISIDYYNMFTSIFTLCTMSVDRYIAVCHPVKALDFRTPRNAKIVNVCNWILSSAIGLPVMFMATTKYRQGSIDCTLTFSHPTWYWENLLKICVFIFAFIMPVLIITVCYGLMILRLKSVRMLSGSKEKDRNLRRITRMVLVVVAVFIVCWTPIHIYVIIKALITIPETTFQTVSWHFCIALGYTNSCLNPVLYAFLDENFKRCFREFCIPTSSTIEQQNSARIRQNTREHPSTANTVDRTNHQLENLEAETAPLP
# T3 sequence (P32300 whole entry): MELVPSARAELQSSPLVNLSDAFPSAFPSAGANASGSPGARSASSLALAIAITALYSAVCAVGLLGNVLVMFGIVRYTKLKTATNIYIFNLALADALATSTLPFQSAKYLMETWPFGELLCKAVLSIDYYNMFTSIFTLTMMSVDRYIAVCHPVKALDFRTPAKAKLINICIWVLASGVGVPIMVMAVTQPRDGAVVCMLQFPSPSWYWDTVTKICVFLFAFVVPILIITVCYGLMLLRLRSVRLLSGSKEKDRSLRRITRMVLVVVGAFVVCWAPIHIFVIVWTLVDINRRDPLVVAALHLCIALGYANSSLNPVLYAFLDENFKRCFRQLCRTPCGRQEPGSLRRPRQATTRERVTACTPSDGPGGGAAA
# T1 sequence (P33534 whole entry): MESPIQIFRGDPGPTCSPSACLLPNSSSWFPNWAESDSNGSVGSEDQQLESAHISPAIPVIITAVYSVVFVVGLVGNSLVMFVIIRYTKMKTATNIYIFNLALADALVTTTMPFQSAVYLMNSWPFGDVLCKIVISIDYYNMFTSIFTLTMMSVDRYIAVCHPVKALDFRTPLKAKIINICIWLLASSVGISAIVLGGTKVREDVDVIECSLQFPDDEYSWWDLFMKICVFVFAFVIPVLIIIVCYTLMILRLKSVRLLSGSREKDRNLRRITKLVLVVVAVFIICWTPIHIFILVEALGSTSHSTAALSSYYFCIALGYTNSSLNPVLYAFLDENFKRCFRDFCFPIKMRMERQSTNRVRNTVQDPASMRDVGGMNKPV
smiles,measurement,setting,value
"CCN(CC)C(=O)c1[nH]c2c(c1C)C[C@H]1[C@H]3Cc4ccc(OC)c5c4[C@@]1(CCN3C)[C@H]2O5 [Example 7, [8R-(4bS*,8α,8aβ,12bβ)]-11-Diethylaminocarbonyl-7,10-dimethyl-1-methoxy-5,6,7,8,12,12b-hexahyro-(9H)-4,8-methanobenzofuro[3,2-e]pyrrolo[2,3-g]isoquinoline hydrochloride]",IC50,"[1]; electrically stimulated mouse vas deferens, 37° C.",25 nM
same,shift of the dose-response curve by NTI (selective antagonism),"[1]; in presence of 30 nM of NTI (naltrindole), MVD",10 fold
same,Ki kappa/Ki delta,kappa opioid receptor,2259
same,Ki mu/Ki delta,mu opioid receptor,218
same,Ki,delta opioid receptor,1.59 nM
